# Results reported in patent publication US8575091B1, “Amylin analogues and pharmaceutical compositions thereof” (Novo Nordisk A/S, priority 2012, dated 2013).
# Numbered stars: 1 amine (or outer) side, 2 acyl side, 3 side chain; on linkers, the order of the positions; unused ones are H or OH. Bridge positions count the residues as written; N and C are the ends. Side chains are listed from the residue outwards. Peptide text beside a SMILES is read from it. * marks the point of attachment. C20 diacid = O=C(O)CCCCCCCCCCCCCCCCCCC(=O)*; γGlu = O=C(O)[C@H](CCC(=O)[*:2])N[*:1]; AEEA = NCCOCCOCC(=O)O
# Legend:
# rat amylin receptor = target: T1, rat amylin receptor (Rattus norvegicus, UniProt P32214+Q9JJ73); test: Assay (VI) binding to the rat amylin receptor; conditions: rCTR bind IC50 divided by rAmylin-R bind IC50
# T1 construct: expressed in transfected cells; host or cells: BHK tk'ts 13 (transient, FuGENE 6), membranes
# T1 sequence (P32214 25-479 isoform P32214-2 limits assumed): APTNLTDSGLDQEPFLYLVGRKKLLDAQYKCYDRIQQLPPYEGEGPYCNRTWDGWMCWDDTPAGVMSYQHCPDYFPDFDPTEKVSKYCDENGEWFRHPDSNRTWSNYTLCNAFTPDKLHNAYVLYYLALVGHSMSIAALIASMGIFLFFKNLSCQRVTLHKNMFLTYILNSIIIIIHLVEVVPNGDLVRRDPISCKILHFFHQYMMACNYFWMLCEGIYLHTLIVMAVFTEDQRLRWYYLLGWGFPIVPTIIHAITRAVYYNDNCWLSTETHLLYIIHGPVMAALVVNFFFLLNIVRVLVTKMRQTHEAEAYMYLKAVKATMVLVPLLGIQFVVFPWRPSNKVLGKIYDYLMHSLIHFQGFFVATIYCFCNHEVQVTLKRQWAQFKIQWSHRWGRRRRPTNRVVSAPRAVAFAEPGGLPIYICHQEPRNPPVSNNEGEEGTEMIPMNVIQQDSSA
# T1 sequence (Q9JJ73 23-147 partner): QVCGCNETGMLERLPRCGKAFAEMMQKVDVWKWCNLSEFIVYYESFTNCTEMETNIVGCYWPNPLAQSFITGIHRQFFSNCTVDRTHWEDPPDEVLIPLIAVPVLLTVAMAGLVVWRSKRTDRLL
# Method: Assay (VI)—Determination of the Binding to the Rat Amylin Receptor
# The assay was performed as described above (Assay (V)—Determination of binding to the human amylin receptor) with the exception that we used membranes prepared from BHK tk'ts 13 cells that were transiently transfected with the rat calcitonin receptor rat RAMP 3 at an equimolar ratio […]. The BHK tk'ts 13 cells were transiently transfected with rat calcitonin receptor using FuGENE® 6 (Roche), according to the manufacturer's recommendations. Cells were grown in DMEM with 10% FBS and 1% Pen/Strep. Approximately 48 hours after transfection, the cells were harvested and membranes were prepared.
# [1] = target: T2, human amylin receptor (amylin 3(a) receptor: human calcitonin receptor + RAMP-3) (Homo sapiens, UniProt O60896+P30988); test: Assay (II)a functional assay, human amylin receptor (CRE luciferase, BHK cells); format: cell-based
# T2 construct: expressed in transfected cells
# T2 sequence (P30988 25-474): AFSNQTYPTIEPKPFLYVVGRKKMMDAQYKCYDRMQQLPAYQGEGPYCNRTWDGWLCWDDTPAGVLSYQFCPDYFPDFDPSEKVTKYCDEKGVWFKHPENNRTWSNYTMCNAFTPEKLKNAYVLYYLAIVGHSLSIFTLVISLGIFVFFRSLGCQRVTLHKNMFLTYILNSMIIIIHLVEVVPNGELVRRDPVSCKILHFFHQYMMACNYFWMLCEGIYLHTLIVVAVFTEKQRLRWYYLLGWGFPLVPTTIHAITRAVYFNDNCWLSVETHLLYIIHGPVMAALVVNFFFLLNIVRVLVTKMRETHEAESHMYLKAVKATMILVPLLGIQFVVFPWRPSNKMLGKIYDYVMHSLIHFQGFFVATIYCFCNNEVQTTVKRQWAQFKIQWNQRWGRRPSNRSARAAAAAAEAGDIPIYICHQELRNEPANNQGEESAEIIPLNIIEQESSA
# T2 sequence (O60896 24-148 partner): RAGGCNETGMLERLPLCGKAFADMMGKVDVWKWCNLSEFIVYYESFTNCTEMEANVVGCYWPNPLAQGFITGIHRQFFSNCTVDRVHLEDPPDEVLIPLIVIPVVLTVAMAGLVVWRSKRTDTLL
# human amylin receptor = target: T3, human amylin receptor (Homo sapiens, UniProt O60896+P30988); test: Assay (V) binding to the human amylin receptor (SPA, 125I-rat amylin); conditions: human binding ratio, included for comparison
# T3 construct: expressed in transfected cells
# T3 sequence (P30988 25-474): T2 sequence (P30988 25-474)
# T3 sequence (O60896 24-148 partner): T2 sequence (O60896 24-148 partner)
# Outline: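 IC50, taken as receptor affinity, came from one-site binding competition analysis of scintillation proximity counts. Amylin 3(a)/CRE-luc cell membranes (35 ng/μL final) were mixed with SPA beads (0.05 mg/well) in 50 mM Hepes pH 7.4 containing CaCl2, MgCl2, 0.1% OA and 0.02% Tween20.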
# [2] = Table 6, human functional selectivity (hCTR EC50 / hAmylin-R EC50)
Structure (SMILES),Ratio rCT/rAmylin binding (rat amylin receptor; Table 7b),Ratio rCT/rAmylin binding (rat amylin receptor; Table 7c),Ratio rCT/rAmylin binding (rat amylin receptor),"Ratio hCT/hAmylin funct. [1, 2]",Ratio hCT/hAmylin binding (human amylin receptor),"Ratio hCT/hAmylin funct. ([1]; Table 6i, hCTR funct. EC50 / hAmylin-R funct. EC50)"
CC[C@H](C)[C@H](NC(=O)[C@H](C)NC(=O)CNC(=O)[C@H](Cc1ccccc1)NC(=O)[C@H](CC(N)=O)NC(=O)[C@@H]1CCCN1C(=O)[C@H](CO)NC(=O)[C@H](CO)NC(=O)[C@H](Cc1c[nH]cn1)NC(=O)[C@H](CCCNC(=N)N)NC(=O)[C@H](CC(C)C)NC(=O)[C@H](Cc1ccccc1)NC(=O)[C@H](CC(=O)O)NC(=O)[C@H](C)NC(=O)[C@H](CC(C)C)NC(=O)[C@H](CCCNC(=N)N)NC(=O)[C@H](CCC(N)=O)NC(=O)[C@@H](NC(=O)[C@H](C)NC(=O)[C@@H]1CSSC[C@H](NC(=O)[C@@H](N)CCCCNC(=O)CC[C@H](NC(=O)CCCCCCCCCCCCCCCCCCC(=O)O)C(=O)O)C(=O)N[C@@H](CC(N)=O)C(=O)N[C@@H]([C@@H](C)O)C(=O)N[C@@H](C)C(=O)N[C@@H]([C@@H](C)O)C(=O)N1)[C@@H](C)O)C(=O)N1CCC[C@H]1C(=O)N[C@@H](CO)C(=O)N[C@@H](CO)C(=O)N[C@H](C(=O)N[C@@H](CC(N)=O)C(=O)N[C@H](C(=O)NCC(=O)N1CCC[C@H]1C(=O)N[C@@H](CCC(=O)O)C(=O)N[C@H](C(=O)N[C@@H](Cc1ccc(O)cc1)C(N)=O)[C@@H](C)O)C(C)C)[C@@H](C)O [Example 123] (H-K([γGlu-C20 diacid])CNTATCATQRLADFLRHSSPNFGAIPSSTNVGPETY-NH2; disulfide 2-7 (inferred); N-terminus and C-terminus assumed),62.0,,62.0,3.9,,
CC[C@H](C)[C@H](NC(=O)[C@H](C)NC(=O)CNC(=O)[C@H](Cc1ccccc1)NC(=O)[C@H](CC(N)=O)NC(=O)[C@@H]1CCCN1C(=O)[C@H](CO)NC(=O)[C@H](CO)NC(=O)[C@H](Cc1c[nH]cn1)NC(=O)[C@H](CCCNC(=N)N)NC(=O)[C@H](CC(C)C)NC(=O)[C@H](Cc1ccccc1)NC(=O)[C@H](CC(N)=O)NC(=O)[C@H](C)NC(=O)[C@H](CC(C)C)NC(=O)[C@H](CCCNC(=N)N)NC(=O)[C@H](CCC(N)=O)NC(=O)[C@@H](NC(=O)[C@H](C)NC(=O)[C@@H]1CSSC[C@H](NC(=O)[C@@H](N)CCCCNC(=O)COCCOCCNC(=O)CC[C@H](NC(=O)CCCCCCCCCCCCCCCCCCC(=O)O)C(=O)O)C(=O)N[C@@H](CC(N)=O)C(=O)N[C@@H]([C@@H](C)O)C(=O)N[C@@H](C)C(=O)N[C@@H]([C@@H](C)O)C(=O)N1)[C@@H](C)O)C(=O)N1CCC[C@H]1C(=O)N[C@@H](CO)C(=O)N[C@@H](CO)C(=O)N[C@H](C(=O)N[C@@H](CC(N)=O)C(=O)N[C@H](C(=O)NCC(=O)N[C@@H](CO)C(=O)N[C@@H](CC(N)=O)C(=O)N[C@H](C(=O)N[C@@H](Cc1ccc(O)cc1)C(N)=O)[C@@H](C)O)C(C)C)[C@@H](C)O [Example 41],54.0,54.0,54.0,,,

# More lines, now with the values ahead:
Ratio rCT/rAmylin binding (rat amylin receptor; Table 7b),Ratio rCT/rAmylin binding (rat amylin receptor; Table 7c),Ratio rCT/rAmylin binding (rat amylin receptor),"Ratio hCT/hAmylin funct. [1, 2]",Ratio hCT/hAmylin binding (human amylin receptor),"Ratio hCT/hAmylin funct. ([1]; Table 6i, hCTR funct. EC50 / hAmylin-R funct. EC50)",Structure (SMILES)
87.0,87.0,87.0,,,,CC[C@H](C)[C@H](NC(=O)[C@H](C)NC(=O)CNC(=O)[C@H](Cc1ccccc1)NC(=O)[C@H](CC(N)=O)NC(=O)[C@@H]1CCCN1C(=O)[C@H](CO)NC(=O)[C@H](CO)NC(=O)[C@H](Cc1c[nH]cn1)NC(=O)[C@H](CCCNC(=N)N)NC(=O)[C@H](CC(C)C)NC(=O)[C@H](Cc1ccccc1)NC(=O)[C@H](CCCNC(=N)N)NC(=O)[C@H](C)NC(=O)[C@H](CC(C)C)NC(=O)[C@H](CCCNC(=N)N)NC(=O)[C@H](CCC(N)=O)NC(=O)[C@@H](NC(=O)[C@H](C)NC(=O)[C@@H]1CSSC[C@H](NC(=O)[C@@H](N)CCCCNC(=O)COCCOCCNC(=O)CC[C@H](NC(=O)CCCCCCCCCCCCCCCCCCC(=O)O)C(=O)O)C(=O)N[C@@H](CC(N)=O)C(=O)N[C@@H]([C@@H](C)O)C(=O)N[C@@H](C)C(=O)N[C@@H]([C@@H](C)O)C(=O)N1)[C@@H](C)O)C(=O)N1CCC[C@H]1C(=O)N[C@@H](CO)C(=O)N[C@@H](CO)C(=O)N[C@H](C(=O)N[C@@H](CC(N)=O)C(=O)N[C@H](C(=O)NCC(=O)N[C@@H](CO)C(=O)N[C@@H](CC(N)=O)C(=O)N[C@H](C(=O)N[C@@H](Cc1ccc(O)cc1)C(N)=O)[C@@H](C)O)C(C)C)[C@@H](C)O [Example 82] (H-K([AEEA-γGlu-C20 diacid])CNTATCATQRLARFLRHSSPNFGAIPSSTNVGSNTY-NH2; disulfide 2-7 (inferred); N-terminus and C-terminus assumed)
,,6.4,3.6,3.6,,CC[C@H](C)[C@H](NC(=O)[C@H](C)NC(=O)CNC(=O)[C@H](Cc1ccccc1)NC(=O)[C@H](CC(N)=O)NC(=O)[C@@H]1CCCN1C(=O)[C@H](CO)NC(=O)[C@H](CO)NC(=O)[C@H](Cc1c[nH]cn1)NC(=O)[C@H](CCCNC(=N)N)NC(=O)[C@H](CC(C)C)NC(=O)[C@H](Cc1ccccc1)NC(=O)[C@H](CCC(=O)O)NC(=O)[C@H](C)NC(=O)[C@H](CC(C)C)NC(=O)[C@H](CCCNC(=N)N)NC(=O)[C@H](CCC(N)=O)NC(=O)[C@@H](NC(=O)[C@H](C)NC(=O)[C@@H]1CSSC[C@H](NC(=O)[C@H](CCCCN)NC(=O)COCCOCCNC(=O)COCCOCCNC(=O)CC[C@H](NC(=O)CCCCCCCCCCCCCCCCCCC(=O)O)C(=O)O)C(=O)N[C@@H](CC(N)=O)C(=O)N[C@@H]([C@@H](C)O)C(=O)N[C@@H](C)C(=O)N[C@@H]([C@@H](C)O)C(=O)N1)[C@@H](C)O)C(=O)N1CCC[C@H]1C(=O)N[C@@H](CO)C(=O)N[C@@H](CO)C(=O)N[C@H](C(=O)N[C@@H](CC(N)=O)C(=O)N[C@H](C(=O)NCC(=O)N[C@@H](CO)C(=O)N[C@@H](CC(N)=O)C(=O)N[C@H](C(=O)N1CCC[C@H]1C(N)=O)[C@@H](C)O)C(C)C)[C@@H](C)O [Example 20] ({C20 diacid-γGlu-AEEA-AEEA}-KCNTATCATQRLAEFLRHSSPNFGAIPSSTNVGSNTP-NH2; disulfide 2-7)
42.0,,42.0,4.5,,4.5,CC(C)C[C@H](NC(=O)[C@H](CCCNC(=N)N)NC(=O)[C@H](CCC(N)=O)NC(=O)[C@@H](NC(=O)[C@H](C)NC(=O)[C@@H]1CSSC[C@H](NC(=O)[C@H](CCCCN)NC(=O)CC[C@H](NC(=O)CCCCCCCCCCCCCCCCCCC(=O)O)C(=O)O)C(=O)N[C@@H](CC(N)=O)C(=O)N[C@@H]([C@@H](C)O)C(=O)N[C@@H](C)C(=O)N[C@@H]([C@@H](C)O)C(=O)N1)[C@@H](C)O)C(=O)N[C@@H](C)C(=O)N[C@@H](CCC(=O)O)C(=O)N[C@@H](Cc1ccccc1)C(=O)N[C@@H](CC(C)C)C(=O)N[C@@H](CCCNC(=N)N)C(=O)N[C@@H](Cc1c[nH]cn1)C(=O)N[C@@H](CO)C(=O)N[C@@H](CO)C(=O)N1CCC[C@H]1C(=O)N[C@@H](CC(N)=O)C(=O)N[C@@H](Cc1ccccc1)C(=O)NCC(=O)N[C@@H](C)C(=O)N1CCC[C@H]1C(=O)N[C@@H](CC(C)C)C(=O)N[C@@H](CO)C(=O)N[C@@H](CO)C(=O)N[C@H](C(=O)N[C@@H](CC(N)=O)C(=O)N[C@H](C(=O)NCC(=O)N[C@@H](CO)C(=O)N[C@@H](CC(N)=O)C(=O)N[C@H](C(=O)N[C@@H](Cc1ccc(O)cc1)C(N)=O)[C@@H](C)O)C(C)C)[C@@H](C)O [Example 7] ({C20 diacid-γGlu}-KCNTATCATQRLAEFLRHSSPNFGAPLSSTNVGSNTY-NH2; disulfide 2-7)
